Measurements reported in ChEMBL document CHEMBL2203192, “Creation of an HDAC-based yeast screening method for evaluation of marine-derived actinomycetes: discovery of streptosetin A” (J Nat Prod, 2012).
Values after ≈ are worked out from the molar mass of the structure shown.

Tests used:
Saccharomyces cerevisiae [1] = assay: Inhibition of Sir2p in Saccharomyces cerevisiae DMY2843 assessed as minimum inhibitory concentration
[2] = biological target: T1, NAD-dependent protein deacetylase sirtuin-1 (Homo sapiens, UniProt Q96EB6); assay: Inhibition of human recombinant SIRT1 using Arg-His-Lys-Lys(epsilon-acetyl)-AMC at room temperature for 45 mins by fluorescent screening assay
T1 sequence (Q96EB6 whole entry): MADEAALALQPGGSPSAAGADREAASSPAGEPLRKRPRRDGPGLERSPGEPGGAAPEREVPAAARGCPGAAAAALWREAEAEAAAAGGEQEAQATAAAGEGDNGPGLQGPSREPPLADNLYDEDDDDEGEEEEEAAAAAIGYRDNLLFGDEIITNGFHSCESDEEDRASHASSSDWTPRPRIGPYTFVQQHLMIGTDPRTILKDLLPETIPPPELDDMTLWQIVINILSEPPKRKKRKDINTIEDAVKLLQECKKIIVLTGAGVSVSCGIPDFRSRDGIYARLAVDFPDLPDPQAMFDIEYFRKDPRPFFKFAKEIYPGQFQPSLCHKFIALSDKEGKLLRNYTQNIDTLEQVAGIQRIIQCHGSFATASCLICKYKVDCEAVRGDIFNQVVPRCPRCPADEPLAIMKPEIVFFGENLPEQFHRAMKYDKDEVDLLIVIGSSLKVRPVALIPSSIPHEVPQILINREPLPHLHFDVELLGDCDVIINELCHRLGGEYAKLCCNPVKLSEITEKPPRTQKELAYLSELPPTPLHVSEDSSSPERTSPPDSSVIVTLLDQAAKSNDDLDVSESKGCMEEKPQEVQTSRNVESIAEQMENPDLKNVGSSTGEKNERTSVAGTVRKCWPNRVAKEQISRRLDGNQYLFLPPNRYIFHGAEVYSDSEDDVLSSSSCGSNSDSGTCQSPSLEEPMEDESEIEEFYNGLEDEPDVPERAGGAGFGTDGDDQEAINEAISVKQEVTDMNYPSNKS

Saccharomyces cerevisiae [3] = assay: Cytotoxicity against Saccharomyces cerevisiae DMY2843 at 10 mM; type: organism-based; settings: in vivo, 10000 µM
[4] = biological target: T2, NAD-dependent protein deacetylase sirtuin-2 (Homo sapiens, UniProt Q8IXJ6); assay: Inhibition of human recombinant SIRT2 using Arg-His-Lys-Lys(epsilon-acetyl)-AMC at 37 degC for 45 mins by fluorescent screening assay
T2 sequence (Q8IXJ6 whole entry): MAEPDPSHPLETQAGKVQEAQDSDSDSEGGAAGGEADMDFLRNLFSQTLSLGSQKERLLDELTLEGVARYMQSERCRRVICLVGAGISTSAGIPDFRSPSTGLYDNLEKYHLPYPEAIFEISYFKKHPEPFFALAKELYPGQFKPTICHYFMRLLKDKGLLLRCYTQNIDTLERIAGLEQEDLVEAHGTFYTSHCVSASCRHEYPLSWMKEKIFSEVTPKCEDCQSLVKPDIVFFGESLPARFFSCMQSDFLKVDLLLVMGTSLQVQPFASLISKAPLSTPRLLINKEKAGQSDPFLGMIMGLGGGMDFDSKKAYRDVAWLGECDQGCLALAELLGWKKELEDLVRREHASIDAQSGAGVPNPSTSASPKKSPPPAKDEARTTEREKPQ

Molecule `CC(NC(=O)c1ccccc1/N=C/c1c(O)ccc2ccccc12)c1ccccc1` (stereo not given) has an MIC (Saccharomyces cerevisiae [1]) of 12.5 µM (≈ 4.93 µg/mL).
For `CC[C@@H]1CC(=O)[C@H]2[C@@H](CC=C(C)[C@@H]2O)[C@]1(C)C(=O)C1=C(O)NCC1=O` [STREPTOSETIN A], the IC50 [2] was 3.7 mM, the Activity (Saccharomyces cerevisiae [3]) was “Toxic” and the MIC (Saccharomyces cerevisiae [1]) was 2500 µM (≈ 869 µg/mL). It also gave an IC50 [4] of 4.5 mM.
